Measured values from ChEMBL document CHEMBL5543167, “Design, Synthesis, and Biological Evaluation of Novel EGFR PROTACs Targeting C797S Mutation” (J Med Chem, 2024).
pIC50: −log10 of the molar value. The source made the active and inactive calls. The rule behind the calls is not given here.

What was measured:
[1] = target: Protein cereblon/Epidermal growth factor receptor (Homo sapiens, UniProt P00533+Q96SW2, T790M/C797S/L858R); assay: PROTAC activity at CRBN/EGFR L858R/T790M/C797S mutant in human H1975-TM cells assessed as induction of EGFR degradation incubated for 24 hrs by Western blot analysis; format: cell-based
[2] = system: Protein cereblon/Epidermal growth factor receptor (Homo sapiens), P00533+Q96SW2 [L858R,T790M,C797S]; assay: PROTAC activity at CRBN/EGFR L858R/T790M/C797S mutant in human H1975-TM cells assessed as induction of EGFR degradation by measuring remaining activity at 100 nM incubated for 24 hrs by Western blot analysis (reference value: 100%); format: cell-based
[3] = system: Protein cereblon/Epidermal growth factor receptor (Homo sapiens), P00533+Q96SW2 [L858R,T790M,C797S]; assay: PROTAC activity at CRBN/EGFR L858R/T790M/C797S mutant in human H1975-TM cells assessed as induction of EGFR degradation by measuring remaining activity at 100 nM incubated for 3 hrs by Western blot analysis (reference value: 100%); format: cell-based
[4] = system: Protein cereblon/Epidermal growth factor receptor (Homo sapiens), P00533+Q96SW2 [L858R,T790M,C797S]; assay: PROTAC activity at CRBN/EGFR L858R/T790M/C797S mutant in human H1975-TM cells assessed as induction of EGFR degradation by measuring remaining activity at 100 nM incubated for 12 hrs by Western blot analysis (reference value: 100%); format: cell-based
[5] = system: Protein cereblon/Epidermal growth factor receptor (Homo sapiens), P00533+Q96SW2 [L858R,T790M,C797S]; assay: PROTAC activity at CRBN/EGFR L858R/T790M/C797S mutant in human H1975-TM cells assessed as induction of EGFR degradation by measuring remaining activity at 100 nM preincubated for 24 hrs followed by compound washout and measured after 48 hrs by Western blot analysis (reference value: 100%); format: cell-based
[6] = system: Protein cereblon/Epidermal growth factor receptor (Homo sapiens), P00533+Q96SW2 [L858R,T790M,C797S]; assay: PROTAC activity at CRBN/EGFR L858R/T790M/C797S mutant in human H1975-TM cells assessed as induction of EGFR degradation by measuring remaining activity at 50 nM preincubated with lenalidomide for 6 hrs followed by compound addition and measured after 24 hrs by Western blot analysis (reference value: 100%); format: cell-based
[7] = system: Protein cereblon/Epidermal growth factor receptor (Homo sapiens), P00533+Q96SW2 [UNDEFINED MUTATION]; assay: (§1) PROTAC activity at CRBN/EGFR exon 19 deletion/T790M/C797S mutant in human PC-9-TM cells assessed as induction of EGFR degradation incubated for 24 hrs by Western blot analysis; format: cell-based
Chain of Protein cereblon/Epidermal growth factor receptor (Homo sapiens), P00533+Q96SW2 [UNDEFINED MUTATION] (P00533 whole entry, looked up, stated change not applied): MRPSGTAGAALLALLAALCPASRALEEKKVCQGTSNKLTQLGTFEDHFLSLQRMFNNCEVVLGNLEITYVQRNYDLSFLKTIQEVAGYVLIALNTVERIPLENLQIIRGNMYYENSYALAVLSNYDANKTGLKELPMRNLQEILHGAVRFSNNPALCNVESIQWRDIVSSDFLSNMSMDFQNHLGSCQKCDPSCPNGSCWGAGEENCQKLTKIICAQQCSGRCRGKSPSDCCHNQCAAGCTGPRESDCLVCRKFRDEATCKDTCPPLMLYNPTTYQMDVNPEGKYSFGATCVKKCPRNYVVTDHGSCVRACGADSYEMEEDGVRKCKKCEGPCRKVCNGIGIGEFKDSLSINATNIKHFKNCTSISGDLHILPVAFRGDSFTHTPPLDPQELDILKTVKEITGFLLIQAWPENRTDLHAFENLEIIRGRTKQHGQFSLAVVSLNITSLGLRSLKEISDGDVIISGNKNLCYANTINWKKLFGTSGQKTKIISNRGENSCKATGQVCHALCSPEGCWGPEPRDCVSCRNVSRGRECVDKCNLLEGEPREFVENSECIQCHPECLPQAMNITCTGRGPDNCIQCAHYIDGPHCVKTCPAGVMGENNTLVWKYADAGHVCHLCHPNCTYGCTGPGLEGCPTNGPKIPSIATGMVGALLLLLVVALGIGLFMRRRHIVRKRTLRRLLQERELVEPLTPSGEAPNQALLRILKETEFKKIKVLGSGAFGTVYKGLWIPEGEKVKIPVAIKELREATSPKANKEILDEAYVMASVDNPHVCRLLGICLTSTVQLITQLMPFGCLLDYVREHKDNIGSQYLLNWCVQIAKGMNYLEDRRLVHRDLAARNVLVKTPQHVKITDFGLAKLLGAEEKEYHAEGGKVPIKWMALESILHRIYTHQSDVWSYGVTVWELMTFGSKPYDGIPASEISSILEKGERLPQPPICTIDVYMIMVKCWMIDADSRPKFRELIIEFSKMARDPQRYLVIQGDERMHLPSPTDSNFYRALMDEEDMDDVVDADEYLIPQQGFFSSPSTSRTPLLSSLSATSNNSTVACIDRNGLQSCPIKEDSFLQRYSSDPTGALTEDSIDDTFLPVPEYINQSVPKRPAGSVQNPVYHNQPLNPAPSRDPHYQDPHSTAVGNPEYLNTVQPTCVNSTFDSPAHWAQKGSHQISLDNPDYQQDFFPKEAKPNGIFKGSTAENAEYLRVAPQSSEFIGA
Chain of Protein cereblon/Epidermal growth factor receptor (Homo sapiens), P00533+Q96SW2 [UNDEFINED MUTATION] (Q96SW2 whole entry, looked up, stated change not applied): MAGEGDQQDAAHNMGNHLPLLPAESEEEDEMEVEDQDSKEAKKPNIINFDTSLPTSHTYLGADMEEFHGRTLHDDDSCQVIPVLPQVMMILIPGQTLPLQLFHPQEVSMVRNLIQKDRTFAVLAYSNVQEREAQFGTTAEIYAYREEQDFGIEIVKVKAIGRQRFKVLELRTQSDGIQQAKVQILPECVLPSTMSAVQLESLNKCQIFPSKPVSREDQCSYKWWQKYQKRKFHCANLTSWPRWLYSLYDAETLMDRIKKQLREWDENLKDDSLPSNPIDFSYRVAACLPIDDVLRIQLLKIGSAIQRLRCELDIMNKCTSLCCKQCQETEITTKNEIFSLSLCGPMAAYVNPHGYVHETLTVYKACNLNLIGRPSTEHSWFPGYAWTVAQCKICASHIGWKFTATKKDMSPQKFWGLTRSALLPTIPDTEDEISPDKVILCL

[8] = target: T1, Protein cereblon/Epidermal growth factor receptor (Homo sapiens, UniProt P00533+Q96SW2); assay: as §1; format: cell-based
T1 sequence (P00533 whole entry, looked up, stated change not applied): as the sequence (P00533 whole entry, looked up, stated change not applied) above
T1 sequence (Q96SW2 whole entry, looked up, stated change not applied): as the sequence (Q96SW2 whole entry, looked up, stated change not applied) above

[9] = system: Protein cereblon/Epidermal growth factor receptor (Homo sapiens), P00533+Q96SW2 [UNDEFINED MUTATION]; assay: (§2) PROTAC activity at CRBN/EGFR exon 19 deletion mutant in human PC-9 cells assessed as induction of EGFR degradation incubated for 24 hrs by Western blot analysis; format: cell-based
[10] = target: T1, Protein cereblon/Epidermal growth factor receptor; assay: as §2; format: cell-based
[11] = Antiproliferative activity against human PC-9-TM cells harboring EGFR exon 19 deletion/T790M/[…] mutant assessed as inhibition of cell proliferation incubated for 72 hrs by CCK8 assay; format: functional, cell-based
A549 = assay: Antiproliferative activity against human A549 cells harboring wildtype EGFR assessed as inhibition of cell proliferation incubated for 72 hrs by CCK8 assay; format: functional, cell-based; conditions: A549, 72 h
[12] = target: Aurora kinase B (Homo sapiens) (UniProt Q96GD4); assay: Induction of AURKB degradation in human H1975-TM cells at 50 nM incubated for 24 hrs; format: cell-based
Chain of Aurora kinase B (Homo sapiens) (Q96GD4 whole entry): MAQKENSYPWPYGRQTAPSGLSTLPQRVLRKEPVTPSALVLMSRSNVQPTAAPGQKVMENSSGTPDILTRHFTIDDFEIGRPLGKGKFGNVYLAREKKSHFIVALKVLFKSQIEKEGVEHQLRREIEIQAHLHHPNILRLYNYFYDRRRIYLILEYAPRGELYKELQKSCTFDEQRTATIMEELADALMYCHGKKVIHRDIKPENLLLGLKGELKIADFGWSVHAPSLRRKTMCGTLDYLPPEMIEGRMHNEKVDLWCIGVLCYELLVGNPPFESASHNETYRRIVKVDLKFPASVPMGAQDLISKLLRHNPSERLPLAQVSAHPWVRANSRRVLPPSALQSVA

[13] = target: Ribosomal protein S6 kinase alpha-1 (Homo sapiens) (UniProt Q15418); assay: Induction of RPS6KA1 degradation in human H1975-TM cells at 50 nM incubated for 24 hrs; format: cell-based
H1975-TM [14] = assay: Inhibition of colony formation in human H1975-TM cells harboring EGFR L858R/T790M/C797S mutant at 3.7 to 100 nM incubated for 14 days by crystal violet staining based analysis; format: functional, cell-based; conditions: dose 3.7-100 nM, time 14.0 day
H1975-TM [15] = assay: Induction of cell cycle arrest in human H1975-TM cells harboring EGFR L858R/T790M/C797S mutant assessed as accumulation of cells at G0/G1 phase at 5 to 60 nM incubated for 24 hrs by RNase/PI staining based analysis; format: functional; conditions: dose 5-60 nM
[16] = target: Epidermal growth factor receptor (Homo sapiens) (UniProt P00533); assay: Inhibition of EGFR signaling in human H1975-TM cells harboring EGFR L858R/T790M/C797S mutant assessed as reduction in EGFR phosphorylation by Western blot analysis; format: cell-based; conditions: dose 1.2-300 nM
Chain of Epidermal growth factor receptor (Homo sapiens) (P00533 whole entry): as the sequence (P00533 whole entry, looked up, stated change not applied) above

[17] = target: Epidermal growth factor receptor (Homo sapiens) (UniProt P00533); assay: Inhibition of EGFR signaling in human H1975-TM cells harboring EGFR L858R/T790M/C797S mutant assessed as reduction in AKT activation by Western blot analysis; format: cell-based; conditions: dose 1.2-300 nM
[18] = Antitumor activity against human H1975-TM cells xenografted in BALB/c nude mouse assessed as tumor growth inhibition at 100 mg/kg, po administered once daily for 31 days relative to control; format: functional; conditions: 744 h, time 31 day, read-out: TGI
H1975-TM [19] = assay: Antitumor activity against human H1975-TM cells xenografted in BALB/c nude mouse assessed as decrease in tumor cell proliferation at 25 to 100 mg/kg, po administered once daily for 31 days by Ki67 staining based light microscopic analysis; format: functional, organism-based; conditions: dose 25-100 mg/kg, time 31.0 day
Mus musculus [20] = assay: In vivo PROTAC activity at CRBN/EGFR L858R/T790M/C797S mutant in BALB/c nude mouse xenografted with human […] cells assessed as decrease in EGFR protein level in tumor at 25 to 100 mg/kg, po administered once daily for 31 days by Western blot analysis; format: functional, organism-based; conditions: dose 25-100 mg/kg, time 31.0 day
Mus musculus [21] = assay: In vivo inhibition of EGFR signaling in BALB/c nude mouse xenografted with human […] cells assessed as reduction in EGFR phosphorylation at 25 to 100 mg/kg, po administered once daily for 31 days by Western blot analysis; format: functional, organism-based; conditions: dose 25-100 mg/kg, time 31.0 day
Mus musculus [22] = assay: In vivo inhibition of EGFR signaling in BALB/c nude mouse xenografted with human […] cells assessed as reduction in ERK activation at 25 to 100 mg/kg, po administered once daily for 31 days by Western blot analysis; format: functional, organism-based; conditions: dose 25-100 mg/kg, time 31.0 day
Mus musculus [23] = assay: In vivo inhibition of EGFR signaling in BALB/c nude mouse xenografted with human […] cells assessed as reduction in AKT activation at 25 to 100 mg/kg, po administered once daily for 31 days by Western blot analysis; format: functional, organism-based; conditions: dose 25-100 mg/kg, time 31.0 day
[24] = Toxicity in BALB/c nude mouse xenografted with human H1975-TM cells assessed as heart lesions at 25 to 100 mg/kg, po administered once daily for 31 days by Hematoxylin and eosin staining based analysis; format: organism-based; conditions: in vivo, 744 h, dose 25-100 mg/kg, time 31 day
[25] = Toxicity in BALB/c nude mouse xenografted with human H1975-TM cells assessed as liver lesions at 25 to 100 mg/kg, po administered once daily for 31 days by Hematoxylin and eosin staining based analysis; format: organism-based; conditions: in vivo, 744 h, dose 25-100 mg/kg, time 31 day
[26] = AUC (0 to infinity) in male Sprague-Dawley rat at 5 mg/kg, iv measured after 24 hrs by LC-MS/MS analysis; format: ADME, organism-based; conditions: in vivo
[27] = Half-life in male Sprague-Dawley rat at 5 mg/kg, iv measured after 24 hrs by LC-MS/MS analysis; format: ADME, organism-based; conditions: in vivo

Work on `CCS(=O)(=O)n1cc(-c2nc(Nc3ccc(N4CCN(CCCCCCC(=O)Nc5cccc6c5CN(C5CCC(=O)NC5=O)C6=O)CC4)cc3)ncc2C(F)(F)F)c2ccccc21` (stereo not drawn) yielded a DC50 [1] of 10.2 nM, an Activity [2] of 2.3% and an Activity [3] of 75.7%. The Activity [4] was 44.5%, the Activity [5] was 66.6% and the Activity [6] was 56.4%. For the same molecule, the Activity [7] was “Dose-Dependent Effect”, the DC50 [8] was 36.5 nM and the Activity [9] was “Dose-Dependent Effect”. The DC50 [10] was 75.4 nM, the pIC50 [11] was 7.36 and the pIC50 (A549) was 7.01. The Activity [12] was “Active”, the Activity [13] was “Active” and the inhibition (H1975-TM [14]) was “Active”. The Activity (H1975-TM [15]) was “Active”, the inhibition [16] was “Dose-Dependent Effect” and the inhibition [17] was “Dose-Dependent Effect”. For the same molecule, the inhibition in vivo at 100 mg/kg [18] was 66.4%, the Activity (H1975-TM [19]) was “Active” and the Activity (Mus musculus [20]) was “Active”. The inhibition (Mus musculus [21]) was “Active”, the inhibition (Mus musculus [22]) was “Active” and the inhibition (Mus musculus [23]) was “Active”. For the same molecule, the Activity [24] was “Non-Toxic”, the Activity [25] was “Non-Toxic” and the AUC(0-inf) [26] was 1800 ng·h/mL. For the same molecule, the half-life [27] was 2280 min.
